Columns and labels:
[1] = In vitro dissolution of cromolyn sodium coaxial implants; format: physicochemical; conditions: 50 wt % cromolyn/PCL core, PBS pH 7.4, 37° C.
Procedure: Coaxial rods were produced by operating the two Randcastle extruders simultaneously. The core material (cromolyn/PCL) was fed through the center orifice of the die on the first extruder to form the implant core. […] Individual implants with a diameter of approximately 2 mm were cut to a length of 2 cm. The exposed ends were sealed with the same polymer as the membrane. Cromolyn release was determined in vitro using a simple dissolution test. Individual implants were placed in 4-oz amber jars with 40 mL of buffer (phosphate buffered saline, pH 7.4, with 0.05% sodium azide) and incubated at 37° C. Periodically, aliquots of buffer were removed and replaced with fresh buffer. The cromolyn concentration in each sample was determined by HPLC.

[2] = Release of interferon from implants incubated in phosphate buffered saline; format: physicochemical; conditions: 30 vol % NaCl/PCL tubing filled with 20 mg α-interferon suspension in SAIB, ends sealed
Procedure: Using nitrogen gas as the core feed, a mixture comprising 30 vol % NaCl in PCL was extruded as described above through the outer ring of a coaxial die to form tubing having an overall diameter of about 3 mm. Implants containing α-interferon were prepared from the tubing by filling a short length of tubing with a suspension containing 20 mg of α-interferon in sucrose acetate isobutyrate (SAIB) and sealing the ends of the tube.
The implants, when incubated in phosphate buffered saline, released interferon for several days.

## O=C(O)c1cc(=O)c2c(OCC(O)COc3cccc4oc(C(=O)O)cc(=O)c34)cccc2o1 [cromolyn, cromolyn sodium]
[1]; 30 vol % cromolyn/PCL membrane (pore-forming agent), FIG. 8
  effect of membrane thickness on release of cromolyn: A thicker polymer membrane causes slower release
[1]; 30 vol % lactose/PCL membrane, FIG. 9
  release from sealed versus unsealed implant: the unsealed implant releases faster than the sealed

## α-interferon
[2]
  duration of interferon release: several days

Reference: US8263108B2, “Zero-order prolonged release coaxial implants” (Durect Corporation, priority 2001, dated 2012)
